Experimental data from patent US20120149645A1, “COMPOSITIONS AND MODULATION OF MYOCYTE ENHANCER FACTOR 2 (MEF2)” (EMORY UNIVERSITY, priority 2010, published 2012).

B1: ND6 MEF2 site probe WT (dsDNA)
DNA 1: CTAAACCCCCATAAATAGGAGAAGGCTT
DNA 2: AAGCCTTCTCCTATTTATGGGGGTTTAG

Columns and labels:
[1] = tested on: mitochondrial MEF2D and ND6; test: MPTP mouse model, western blotting of mitochondria purified from brain SNpc; type: in vivo; conditions: chronic intraperitoneal MPTP vs saline treated controls
Description: For each group, six eight-week-old mice received chronic intraperitoneal injections of MPTP-HCl in saline or saline alone were killed on 5 or 20 days after injection. Mitochondria purified from brain SNpc region were analyzed by western blotting. Experiments were repeated three times. […] For each group, three mice received stereotactical injection of control vector (GFP) or Mt2Ddn lentivirus in SN. Two weeks later, mice were exposed to MPTP. After treatment for seven days, the survival of lentivirus-transduced TH+ neurons in SN was determined by immunohistochemistry (left panel). Quantitative analysis of nine mice from three independent experiments was shown at the bottom panel (scale bar, 30 μm; **P<0.01). […] Mitochondria were purified from brain striata of postmortem PD patients and controls (normal). Equal amounts of mitochondrial proteins were subjected to western blotting (upper panel). Quantitative analysis of the bands was shown at the right panel (n=13 patients and 13 controls, *P<0.01). Experiments were repeated two times.
Mitochondria were purified from brain tissue using discontinuous sucrose gradient method. Briefly, brain homogenate was made in ice-cold homo-buffer (0.32 M sucrose, 20 mM Tris-HCl, pH 7.4) and spun at 900×g, 4° C. for 10 min. The supernatant was transferred to another clean tube and spun at 10,000×g, 4° C. for 10 min. […]

[2] = tested on: TH+ neurons in SNpc; test: MPTP mouse model of PD, TH immunohistochemistry in SNpc; conditions: mice, chronic MPTP exposure; SNpc and striatum
Description: (B) Role of mitochondrial MEF2D-ND6 pathway in maintaining TH+ neurons in SNpc in a MPTP mouse model of PD. For each group, three mice received stereotactical injection of control vector (GFP) or Mt2Ddn lentivirus in SN. Two weeks later, mice were exposed to MPTP. After treatment for seven days, the survival of lentivirus-transduced TH+ neurons in SN was determined by immunohistochemistry (left panel). Quantitative analysis of nine mice from three independent experiments was shown at the bottom panel (scale bar, 30 μm; **P<0.01).

[3] = biological target: MEF2D (1-91) (UniProt Q63943 Q63943:1-91); test: EMSA; 10 ng protein, on ice 30 min; conditions: tags: GST fusion (N-terminal GST); label: 32P
Chain of MEF2D (1-91) (Q63943 1-91, one chain of several): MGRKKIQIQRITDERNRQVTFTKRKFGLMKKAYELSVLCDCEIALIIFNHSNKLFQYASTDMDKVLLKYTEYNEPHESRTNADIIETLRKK

| Molecule | level of ND6 protein in mouse brain [1] | mitochondrial MEF2D in mouse brain [1] | immunohistochemical signal for tyrosine hydroxylase (TH) [2] | binding result [3] |
| --- | --- | --- | --- | --- |
| CN1CC=C(c2ccccc2)CC1 [MPTP, 1-methyl 4-phenyl 1,2,3,6-tetrahydropyridine] | clear decline | significant reduction | loss | – |
| B1 | – | – | – | binds |
